Assay results as given in PubChem BioAssay AID256 (DTP/NCI, 2004).
Several values for one entry are separate records, joined by “and”; a condition that tells them apart may be missing. Equal values may be shown once. Toxic doses and inconclusive results are not listed.

Test system: CD2F1 mice, L1210 leukemia ip, survival T/C
Test: NCI In Vivo Anticancer Drug Screen. Data for tumor model L1210 Leukemia (intraperitoneal) in CD2F1 (CDF1) mice
Conditions: higher = longer survival
How it was run: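 Antitumor effect is scored in animals hosting a serially transplanted tumor. Values compare compound-dosed animals against vehicle-only controls as a simple quotient.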

[1] = endpoint: mean survival time, dose: 100.0 mg/kg/injection, schedule: Q01DX001 (ip), vehicle: saline with Tween-80
[2] = endpoint: mean survival time, dose: 200.0 mg/kg/injection, schedule: Q01DX001 (ip), vehicle: saline with Tween-80
[3] = endpoint: mean survival time, dose: 400.0 mg/kg/injection, schedule: Q01DX001 (ip), vehicle: saline with Tween-80
[4] = endpoint: mean survival time, dose: 50.0 mg/kg/injection, schedule: Q01DX009 (ip), vehicle: saline with Tween-80
[5] = endpoint: mean survival time, dose: 100.0 mg/kg/injection, schedule: Q04DX003 (ip), vehicle: saline with Tween-80
[6] = endpoint: mean survival time, dose: 200.0 mg/kg/injection, schedule: Q04DX003 (ip), vehicle: saline with Tween-80
[7] = endpoint: mean survival time, dose: 400.0 mg/kg/injection, schedule: Q04DX003 (ip), vehicle: saline with Tween-80
[8] = endpoint: mean survival time, dose: 100.0 mg/kg/injection, schedule: Q01DX009 (ip), vehicle: saline with Tween-80
[9] = endpoint: mean survival time, dose: 200.0 mg/kg/injection, schedule: Q01DX009 (ip), vehicle: saline with Tween-80

SMILES: COC1OC2COC(c3ccccc3)OC2C2NC(N)(N[N+](=O)[O-])C12O (configuration not stated)
- T/C [1]: 91 % of control
- T/C [2]: 88 % of control
- T/C [3]: 94 % of control

SMILES: O=C(COc1ccccc1)NC(=S)Nc1ccc(Cl)cc1Cl
- T/C (endpoint: mean survival time, dose: 25.0 mg/kg/injection, schedule: Q01DX009 (ip), vehicle: saline with Tween-80): 100 % of control
- T/C [4]: 100 % of control

SMILES: [Cl][Pt+2][Cl].c1ccc(CC2CC[N-]CC2)cc1.c1ccc(CC2CC[N-]CC2)cc1
- T/C (endpoint: mean survival time, dose: 50.0 mg/kg/injection, schedule: Q01DX001 (ip), vehicle: saline with Tween-80): 96 % of control
- T/C [1]: 96 % of control
- T/C [2]: 90 % of control

SMILES: O=C1OC(=O)c2ccc([N+](=O)[O-])c3cccc1c23
- T/C (endpoint: mean survival time, dose: 100.0 mg/kg/injection, schedule: Q04DX003 (ip), vehicle: Klucel (hydroxypropylcellulose) (HPC)): 98 % of control
- T/C (endpoint: mean survival time, dose: 200.0 mg/kg/injection, schedule: Q04DX003 (ip), vehicle: Klucel (hydroxypropylcellulose) (HPC)): 106 % of control
- T/C (endpoint: mean survival time, dose: 400.0 mg/kg/injection, schedule: Q04DX003 (ip), vehicle: Klucel (hydroxypropylcellulose) (HPC)): 96 % of control

SMILES: Cc1nc2n[nH]c(N)c2nc1C
- T/C (endpoint: mean survival time, dose: 100.0 mg/kg/injection, schedule: Q01DX009 (ip), vehicle: saline): 100 % of control
- T/C (endpoint: mean survival time, dose: 200.0 mg/kg/injection, schedule: Q01DX009 (ip), vehicle: saline): 106 % of control
- T/C (endpoint: mean survival time, dose: 400.0 mg/kg/injection, schedule: Q01DX009 (ip), vehicle: saline): 106 % of control

SMILES: O=C(Nc1ccccc1)c1ccccc1C(O)(c1ccccc1)c1ccccn1 (configuration not stated)
- T/C [5]: 97 % of control
- T/C [6]: 101 % of control
- T/C [7]: 86 % of control

SMILES: CCOC(=O)C/C(C)=C/c1ccccc1 (tested in a mixture with another compound)
- T/C [1]: 95 % of control
- T/C (endpoint: mean survival time, dose: 100.0 mg/kg/injection, schedule: Q04DX002 (ip), vehicle: saline with Tween-80): 98 % of control
- T/C [2]: 87 % of control
- T/C (endpoint: mean survival time, dose: 200.0 mg/kg/injection, schedule: Q04DX002 (ip), vehicle: saline with Tween-80): 90 % of control
- T/C [3]: 94 % of control
- T/C (endpoint: mean survival time, dose: 400.0 mg/kg/injection, schedule: Q04DX002 (ip), vehicle: saline with Tween-80): 110 % of control

SMILES: NC(=S)Nc1ccc([N+](=O)[O-])cc1
- T/C (endpoint: mean survival time, dose: 25.0 mg/kg/injection, schedule: Q04DX003 (ip), vehicle: other): 96 % of control
- T/C (endpoint: mean survival time, dose: 50.0 mg/kg/injection, schedule: Q04DX003 (ip), vehicle: other): 91 % of control
- T/C (endpoint: mean survival time, dose: 100.0 mg/kg/injection, schedule: Q04DX003 (ip), vehicle: other): 88 % of control and 95 % of control

SMILES: CON(C)CC(O)c1ccccc1 (configuration not stated)
- T/C [5]: 94 % of control
- T/C [6]: 92 % of control

SMILES: CC(=O)c1cccc(N=NN(C)C)c1
- T/C (endpoint: mean survival time, dose: 46.0 mg/kg/injection, schedule: Q01DX009 (ip), vehicle: Klucel (hydroxypropylcellulose) (HPC)): 124 % of control
- T/C (endpoint: mean survival time, dose: 69.0 mg/kg/injection, schedule: Q01DX009 (ip), vehicle: Klucel (hydroxypropylcellulose) (HPC)): 154 % of control
- T/C (endpoint: mean survival time, dose: 158.0 mg/kg/injection, schedule: Q01DX009 (ip), vehicle: Klucel (hydroxypropylcellulose) (HPC)): 87 % of control and 107 % of control

SMILES: C1CCN(CN2CCCCC2)CC1
- T/C (endpoint: mean survival time, dose: 12.5 mg/kg/injection, schedule: Q01DX009 (ip), vehicle: saline): 103 % of control
- T/C (endpoint: mean survival time, dose: 25.0 mg/kg/injection, schedule: Q01DX009 (ip), vehicle: saline): 98 % of control
- T/C (endpoint: mean survival time, dose: 25.0 mg/kg/injection, schedule: Q04DX003 (ip), vehicle: saline): 90 % of control
- T/C (endpoint: mean survival time, dose: 50.0 mg/kg/injection, schedule: Q01DX009 (ip), vehicle: saline): 97 % of control
- T/C (endpoint: mean survival time, dose: 50.0 mg/kg/injection, schedule: Q04DX003 (ip), vehicle: saline): 92 % of control

SMILES: O=C(Nc1ccc(S(=O)(=O)N2CCCCC2)cc1)OC(c1ccccc1)c1ccccc1
- T/C (endpoint: mean survival time, dose: 5.0 mg/kg/injection, schedule: Q01DX001 (ip), vehicle: other): 103 % of control
- T/C (endpoint: mean survival time, dose: 10.0 mg/kg/injection, schedule: Q01DX001 (ip), vehicle: other): 100 % of control
- T/C (endpoint: mean survival time, dose: 20.0 mg/kg/injection, schedule: Q01DX001 (ip), vehicle: other): 93 % of control
- T/C (endpoint: mean survival time, dose: 40.0 mg/kg/injection, schedule: Q01DX001 (ip), vehicle: other): 100 % of control
- T/C (endpoint: mean survival time, dose: 80.0 mg/kg/injection, schedule: Q01DX001 (ip), vehicle: other): 102 % of control

SMILES: C=C(C)CC1(CC)C(=O)NC(=S)NC1=O
- T/C [4]: 102 % of control
- T/C [8]: 101 % of control

SMILES: CCOC(=O)COc1c(C(C)(C)C)cc([N+](=O)[O-])c(C)c1[N+](=O)[O-]
- T/C [1]: 105 % of control
- T/C [2]: 111 % of control
- T/C [3]: 96 % of control

SMILES: CC(=O)OCC1OC(n2cnc3c(I)nc(I)nc32)C(OC(C)=O)C1OC(C)=O (configuration not stated)
- T/C (endpoint: median survival time, dose: 25.0 mg/kg/injection, schedule: Q01DX005 (ip), vehicle: saline with Tween-80): 105 % of control
- T/C (endpoint: median survival time, dose: 50.0 mg/kg/injection, schedule: Q01DX005 (ip), vehicle: saline with Tween-80): 95 % of control
- T/C (endpoint: median survival time, dose: 100.0 mg/kg/injection, schedule: Q01DX005 (ip), vehicle: saline with Tween-80): 96 % of control
- T/C (endpoint: median survival time, dose: 200.0 mg/kg/injection, schedule: Q01DX005 (ip), vehicle: saline with Tween-80): 95 % of control

SMILES: O=C(Nc1ccccc1C(F)(F)F)n1c(=S)[nH]c2cc([N+](=O)[O-])ccc21
- T/C [4]: 90 % of control
- T/C [8]: 105 % of control
- T/C [9]: 94 % of control

SMILES: O=C(O)/C=C/C1=CCCCC1
- T/C [4]: 101 % of control
- T/C [8]: 93 % of control
- T/C [9]: 93 % of control

SMILES: S=C(S)c1[nH]c(=S)[nH]c(=S)c1Cl
- T/C [5]: 96 % of control
- T/C [6]: 101 % of control
- T/C [7]: 87 % of control

SMILES: CC(CO)CCC(=O)C(C)C1CC2(C)CCC3C(CCC4CC(O)CCC43C)C2C12SCCS2 (configuration not stated)
- T/C [5]: 98 % of control
- T/C [6]: 102 % of control
- T/C [7]: 98 % of control

SMILES: CN(Cc1c[nH]c2nc(N)nc(N)c2c1=O)c1ccc(C(=O)NC(CCC(=O)O)C(=O)O)cc1 (configuration not stated)
- T/C (endpoint: mean survival time, dose: 0.5 mg/kg/injection, schedule: Q01DX005 (ip), vehicle: sodium bicarbonate): 97 % of control and 98 % of control
- T/C (endpoint: mean survival time, dose: 1.0 mg/kg/injection, schedule: Q01DX005 (ip), vehicle: distilled water + Tween-80): 105 % of control
- T/C (endpoint: mean survival time, dose: 1.0 mg/kg/injection, schedule: Q01DX005 (ip), vehicle: sodium bicarbonate): 91 % of control and 108 % of control
- T/C (endpoint: mean survival time, dose: 2.0 mg/kg/injection, schedule: Q01DX005 (ip), vehicle: distilled water + Tween-80): 102 % of control
- T/C (endpoint: mean survival time, dose: 2.0 mg/kg/injection, schedule: Q01DX005 (ip), vehicle: sodium bicarbonate): 97 % of control and 103 % of control
- T/C (endpoint: mean survival time, dose: 4.0 mg/kg/injection, schedule: Q01DX005 (ip), vehicle: distilled water + Tween-80): 100 % of control
- T/C (endpoint: mean survival time, dose: 4.0 mg/kg/injection, schedule: Q01DX005 (ip), vehicle: sodium bicarbonate): 121 % of control and 104 % of control
- T/C (endpoint: mean survival time, dose: 8.0 mg/kg/injection, schedule: Q01DX005 (ip), vehicle: distilled water + Tween-80): 97 % of control
- T/C (endpoint: mean survival time, dose: 8.0 mg/kg/injection, schedule: Q01DX005 (ip), vehicle: sodium bicarbonate): 101 % of control
- T/C (endpoint: mean survival time, dose: 16.0 mg/kg/injection, schedule: Q01DX005 (ip), vehicle: distilled water + Tween-80): 102 % of control
- T/C (endpoint: mean survival time, dose: 16.0 mg/kg/injection, schedule: Q01DX005 (ip), vehicle: sodium bicarbonate): 98 % of control and 102 % of control

SMILES: OC(c1ccccc1)(c1ccccc1)c1ccc(CN2CCOCC2)cc1
- T/C (endpoint: mean survival time, dose: 12.5 mg/kg/injection, schedule: Q01DX009 (ip), vehicle: other): 101 % of control
- T/C (endpoint: mean survival time, dose: 25.0 mg/kg/injection, schedule: Q01DX009 (ip), vehicle: other): 98 % of control
- T/C (endpoint: mean survival time, dose: 50.0 mg/kg/injection, schedule: Q01DX009 (ip), vehicle: other): 93 % of control
- T/C (endpoint: mean survival time, dose: 100.0 mg/kg/injection, schedule: Q01DX009 (ip), vehicle: other): 90 % of control
- T/C (endpoint: mean survival time, dose: 200.0 mg/kg/injection, schedule: Q01DX009 (ip), vehicle: other): 98 % of control

SMILES: COc1cc(/C=N/N2CCCCC2)cc(OC)c1OC
- T/C [5]: 104 % of control
- T/C [6]: 95 % of control
- T/C [7]: 111 % of control

SMILES: NC(=O)C[n+]1cccc(C(=O)Nc2ccccc2)c1
- T/C (endpoint: mean survival time, dose: 100.0 mg/kg/injection, schedule: Q01DX009 (ip), vehicle: saline sonified): 95 % of control
- T/C (endpoint: mean survival time, dose: 200.0 mg/kg/injection, schedule: Q01DX009 (ip), vehicle: saline sonified): 89 % of control

SMILES: N=Cc1c(O)n(-c2ccccc2)c(=O)[nH]c1=O
- T/C [8]: 101 % of control
- T/C [5]: 94 % of control
- T/C [9]: 101 % of control
- T/C [6]: 92 % of control
- T/C (endpoint: mean survival time, dose: 400.0 mg/kg/injection, schedule: Q01DX009 (ip), vehicle: saline with Tween-80): 104 % of control
- T/C [7]: 97 % of control

SMILES: S=C(NCCc1ccccc1)Nc1ccccc1
- T/C [5]: 97 % of control
- T/C [6]: 95 % of control
- T/C [7]: 95 % of control
